Measurements: patent publication US6717015B2 (priority 2002, dated 2004)
Like-named read-outs stand apart in the source and are kept apart here.

How the values were obtained:
[1] = Water uptake / hygroscopicity on storage at 40° C. and 75% relative humidity
[2] = Water uptake on exposure to air for 13 days

Compound: COc1ccc(C(CN(C)C)C2(O)CCCCC2)cc1 (single isomer, unassigned; (-)) [Example 5, (−)-Isomer of Venlafaxine Besylate]
- hygroscopicity [1]: less hygroscopic

Compound: COc1ccc(C(CN(C)C)C2(O)CCCCC2)cc1 (centres unmarked) [Example 4D, Less hydrated Venlafaxine Besylate]
- water present after exposure to air (Karl-Fischer) ([2]; exposed to air for 13 days at room temperature): 1 molar equivalent of water

Compound: COc1ccc(C(CN(C)C)C2(O)CCCCC2)cc1 (single isomer, unassigned; (+)) [Example 6, (+)-Isomer of Venlafaxine Besylate]
- hygroscopicity [1]: less hygroscopic

Compound: COc1ccc(C(CN(C)C)C2(O)CCCCC2)cc1 (centres unmarked) [Example 4B, Amorphous Venlafaxine Besylate]
- water present after exposure to air (Karl-Fischer) ([2]; exposed to air for 13 days): 1 equivalent of water

Compound: COc1ccc(C(CN(C)C)C2(O)CCCCC2)cc1 (racemic) [Example 4A, Venlafaxine Besylate Anhydrate]
- water content after storage (K. Fischer) ([1]; 3 days at 40° C. and 75% relative humidity): 4%
- hygroscopicity ([1]; listed as Anhydrous (+/−)-venlafaxine besylate): hygroscopic

Compound: COc1ccc(C(CN(C)C)C2(O)CCCCC2)cc1 (racemic) [venlafaxine besylate monohydrate]
- uptake of water after storage ([1]; 40° C., relative humidity 75%): No uptake of water
- hygroscopicity ([1]; besylate monohydrate): substantially non-hygroscopic
